Test results published in patent publication US10556098B2, “Microneedle array coated with drug composition” (TEIJIN LIMITED, priority 2012, dated 2020).

Legend:
[1] = set-up: species or system SD rat; conditions: rat, in vivo
Description: Additive: 0.5 w/w sodium carboxymethylcellulose ([…] % hydroxypropylcellulose 1000-5000 mPa·s […] Water: 97.75 w/w % The coater shown in FIG. 5 (the volume of a drug aqueous solution: 4 ml) was used. […] After coating said microneedle array with the solution, the microneedle array was dried at room temperature (20-25° C.) for 60 seconds. The hair of the nine-week old male SD rat's abdomen was removed with a hair clipper and a shaver. The microneedle array of FIG. 7 was pressed onto the rat's skin with a finger, and fixed with tape. After one hour, the microneedle array was removed. In order to evaluate the amount of residual desmopressin acetate (the amount remained on the skin surface and the amount attached to the microneedle array), desmopressin acetate was collected as follows. The skin surface was wiped with Kimwipes® impregnated with ethanol, and the amount of the drug collected from the skin was investigated by measuring the drug in the Kimwipes® with a HPLC. The collected microneedle array was immersed in 75% methanol, and the amount of the collected drug was measured with a HPLC.

[2] = in vivo; set-up: species or system SD rat; conditions: rat
Description: The hair of the nine-week old male SD rat's abdomen was removed with a hair clipper and a shaver. […] Also, the microneedle array after the administration was immersed in 75% methanol, and the amount of the collected drug was measured with a HPLC.

NC(=O)CC[C@@H]1NC(=O)[C@H](Cc2ccccc2)NC(=O)[C@H](Cc2ccc(O)cc2)NC(=O)CCSSC[C@@H](C(=O)N2CCC[C@H]2C(=O)N[C@H](CCCN=C(N)N)C(=O)NCC(N)=O)NC(=O)[C@H](CC(N)=O)NC1=O [desmopressin acetate]
Needles after 1 hour adhesion C (residual drug on microneedle array) [1]: <0.025 µg
Skin after 1 hour adhesion D (residual drug on skin surface) [1]: <0.025 µg
AUC ([2]; male, SD, 4.88 ug): 14.3 ng·h/mL
Skin absorption amount [2]: >4.83
Transfer into the blood (change in blood levels, FIG. 8) [2]: rapidly transferred in the blood
Amount remained on microneedle array ([2]; 0.5 h): <0.025
Amount remained on skin surface ([2]; 0.5 h): <0.025
